Results on nine compounds are retold here after article PMC3190643 (Journal of medicinal chemistry, 2011).

Where a name gives a salt, the structure may show the parent alone. Read-outs that look alike come from different tables or passages of the source.

For series [1] the following is noted: humans; cited from earlier work.
The conditions of series [2]: cited from earlier work.
The conditions of series [3]: for plasma concentration: IV dose of 3, mice, normalized to 8.13 mg/kg.
The nature of a further series: in vivo. Particulars: male, C57Bl/6J, mouse, iv.
The target of series [4] is T1, Human recombinant active MMP-2 (Homo sapiens, UniProt P08253).
T1 sequence (P08253 110-660): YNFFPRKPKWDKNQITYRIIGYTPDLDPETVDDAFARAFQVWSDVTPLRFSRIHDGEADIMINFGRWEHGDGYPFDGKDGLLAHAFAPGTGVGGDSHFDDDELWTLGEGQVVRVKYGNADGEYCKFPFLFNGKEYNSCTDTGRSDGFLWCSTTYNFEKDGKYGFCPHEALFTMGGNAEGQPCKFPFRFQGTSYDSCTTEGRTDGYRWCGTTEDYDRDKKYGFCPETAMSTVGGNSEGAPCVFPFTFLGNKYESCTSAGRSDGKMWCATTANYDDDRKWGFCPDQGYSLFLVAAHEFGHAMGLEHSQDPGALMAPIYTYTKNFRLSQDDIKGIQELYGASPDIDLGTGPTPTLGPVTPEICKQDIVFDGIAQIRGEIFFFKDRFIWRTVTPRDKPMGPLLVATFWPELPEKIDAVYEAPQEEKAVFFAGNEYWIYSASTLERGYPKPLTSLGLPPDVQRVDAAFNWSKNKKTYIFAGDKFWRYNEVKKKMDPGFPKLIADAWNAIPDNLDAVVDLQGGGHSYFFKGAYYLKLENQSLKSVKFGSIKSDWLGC
Particulars: slow-binding.

The target in series [5] is catalytic domain of human recombinant MMP-9 (Homo sapiens, UniProt P14780). As to conditions: slow-binding.
catalytic domain of human recombinant MMP-9, sequence (P14780 107-444 limits assumed): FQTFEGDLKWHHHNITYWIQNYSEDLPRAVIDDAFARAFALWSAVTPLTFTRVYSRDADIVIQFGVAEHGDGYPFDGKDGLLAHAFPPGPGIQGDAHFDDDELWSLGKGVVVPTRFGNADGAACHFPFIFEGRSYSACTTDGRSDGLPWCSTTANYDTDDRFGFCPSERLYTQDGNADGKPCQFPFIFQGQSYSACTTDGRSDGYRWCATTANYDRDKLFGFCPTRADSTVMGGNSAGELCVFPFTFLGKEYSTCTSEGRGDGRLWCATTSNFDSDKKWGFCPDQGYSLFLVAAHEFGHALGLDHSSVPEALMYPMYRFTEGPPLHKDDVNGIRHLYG
Series [6] has as its target catalytic domain of MMP-14 (Homo sapiens, UniProt P50281). Particulars: slow-binding.
Series [7] can be described thus: Metabolic stability in rat liver microsomes. Type of series: in vitro ADME. Particulars: pH 7.4.
A short description of series [8]: Metabolic stability in mouse liver microsomes. As to conditions: calculated from in vitro half-life; for CLint scaled at 100 μM: mouse, microsomes, pH 7.4, CLint,app. It is filed as in vitro ADME.
Series [9] can be described thus: Metabolic stability in human liver microsomes. It is filed as in vitro ADME. As to conditions: pH 7.4.
The test system of series [10] is Salmonella typhimurium Ames II mixed strains (TA7001 to TA7006) and tester strain TA98. Put plainly: Ames II mutagenicity assay. Particulars: with and without rat S9 activation, up to 1 mg/mL.
Setting [11] is: t½ α (distribution half life), IV dose of 5d […], mice.
Where [12] appears, read: t½ β (terminal half life), IV dose of 5d […], mice.

`CC(C)c1cccc(C(C)C)c1O` [propofol]: the Vd in [1] is reported as 12.4 L/kg.
With `O=S(=O)(CC1CS1)c1ccc(Oc2ccccc2)cc1` (stereo not drawn) [Compound 1, (4-phenoxyphenylsulfonyl)methylthiirane], in series [2], the “intrinsic clearance in the rat” value is on record as 117 mL/min/kg and the “t½ in rat liver microsomes” value was 12.0 min.
For `CC(=O)Nc1ccc(Oc2ccc(S(=O)(=O)CC3CS3)cc2)cc1` (stereo not drawn) [Compound M3], the plasma concentration came to 197 ± 61.6 nM in series [3] (2-3 min); 462 ± 313 nM in series [3] (4-5 min); 192 ± 12.1 nM in [3] (7-8 min); 150 ± 27.2 nM in series [3] (11-12 min); 27.3 ± 6.28 nM in [3] (62-66 min). Moreover, the half-life in the series “in vivo” (setting [11]) was found to be 12 min; in “in vivo” (t½ α, IV dose of 3, mice), 5.1 min.
`NCCCC[C@H](N)C(=O)Nc1ccc(Oc2ccc(S(=O)(=O)CC3CS3)cc2)cc1` (stereo partly drawn) [Compound 5b]: in series [4], the “10^4koff, MMP-2” value stood at 2.1 ± 0.9 s^−1 and the “10^−3kon, MMP-2” value is 3.4 ± 0.1 M^−1s^−1. For the same compound, in series [5], the “10^4koff, MMP-9 catalytic domain” value stood at 4.2 ± 0.7 s^−1 and the “10^−3kon, MMP-9 catalytic domain” value is 0.27 ± 0.04 M^−1s^−1.
Turning to `NCC(=O)Nc1ccc(Oc2ccc(S(=O)(=O)CC3CS3)cc2)cc1` (stereo not drawn) [Compound 5a], in [4], the “10^4koff, MMP-2” value is recorded as 8.2 ± 0.9 s^−1 and the “10^−3kon, MMP-2” value was 1.9 ± 0.6 M^−1s^−1. In addition, in series [5], the “10^4koff, MMP-9 catalytic domain” value is 6.5 ± 0.6 s^−1 and the “10^−3kon, MMP-9 catalytic domain” value amounted to 0.21 ± 0.04 M^−1s^−1.
In the case of `Nc1ccc(Oc2ccc(S(=O)(=O)CC3CS3)cc2)cc1O` (stereo not drawn) [Compound 13, 2-Amino-5-(4-((thiiran-2-ylmethyl)sulfonyl)phenoxy)phenol], in series [6], the “10^4koff, MMP-14 catalytic domain” value turned out to be 7.0 ± 1.6 s^−1 and the “10^−3kon, MMP-14 catalytic domain” value stood at 2.7 ± 0.3 M^−1 s^−1. For the same compound, in series [4], the “10^4koff, MMP-2” value was 1.4 ± 0.7 s^−1 and the “10^−3kon, MMP-2” value stood at 1.7 ± 0.1 M^−1s^−1. For the same compound, in series [5], the “10^4koff, MMP-9 catalytic domain” value is on record as 5.3 ± 1.0 s^−1 and the “10^−3kon, MMP-9 catalytic domain” value stood at 1.1 ± 0.1 M^−1s^−1.
In the case of `Nc1ccc(Oc2ccc(S(=O)(=O)CC3CS3)cc2)cc1` (stereo not drawn) [Compound 3, 4-[4-((Thiiran-2-yl)methylsulfonyl)phenoxy]benazamine · HCl salt], the CLint scaled at 100 μM in series [7] is 60 ± 1.8 mL/min/kg; in series [8] it was 103 mL/min/kg; in series [9], below 10 mL/min/kg. Moreover, the “CLint,app” value in [8] is listed as 102.8 ± 7.9 mL/min/kg. The “time plasma levels were higher than the Ki for MMP-9” value in series [3] (male, C57Bl/6J, mouse, in vivo) amounted to 20 min. Besides, the “Ames II mutagenicity response” value in series [10] is recorded as “negative (non-mutagenic)”. This compound yielded a Vd in “in vivo” of 0.0125 L. Besides, the clearance in the series “in vivo” turned out to be 87.5 mL/min/kg. For the same compound, the half-life in the series “in vivo” (setting [11]) was 2.9 min; in “in vivo” (setting [12]), 69 min.
`N[C@@H](CCC(=O)O)C(=O)Nc1ccc(Oc2ccc(S(=O)(=O)CC3CS3)cc2)cc1` (stereo partly drawn) [Compound 5c]: in [4], the “10^4koff, MMP-2” value was determined as 1.8 ± 1.6 s^−1 and the “10^−3kon, MMP-2” value was 2.5 ± 0.1 M^−1s^−1. Besides, in [5], the “10^4koff, MMP-9 catalytic domain” value amounted to 12.0 ± 0.7 s^−1 and the “10^−3kon, MMP-9 catalytic domain” value worked out at 0.28 ± 0.02 M^−1s^−1.
As for `N=C(N)NCCC[C@H](N)C(=O)Nc1ccc(Oc2ccc(S(=O)(=O)CC3CS3)cc2)cc1` (stereo partly drawn) [Compound 5d], the intrinsic metabolic clearance (CLint scaled) at 100 μM is 23.7 ± 1.8 mL/min/kg in [7], below 47 mL/min/kg in series [8] and below 10 mL/min/kg in series [9]. The half-life at 100 μM in series [7] was at least 60 min. The “Ames II mutagenicity response” value in [10] is given as “negative (non-mutagenic)”. In the series “in vivo”, the Vd amounted to 0.0978 L/kg. In the series “in vivo”, the clearance came out at 58.2 mL/min/kg. Besides, the half-life in the series “in vivo” (elimination (terminal) half life t½ β, IV dose of 5d […], mice) is above 240 min; in the series “in vivo” (setting [11]), below 1 min; in the series “in vivo” (setting [12]), 260 min.
